Read-outs that look alike come from different tables or passages of the source.
Tests used:
[1] = test system: subcutaneous Metrazol (scMet) seizure; conditions: cited from earlier work
[2] = target: T1, Na+ currents in CAD cells (mostly Nav1.7) (Mus musculus, UniProt Q62205); conditions: read-out: Slow inactivation IC50, at −50 mV; cited from earlier work
behavioral toxicity = conditions: rat, po; cited from earlier work
[3] = test system: maximal electroshock seizure; experiment: Maximal electroshock seizure; type: in vivo, mice; conditions: Mus musculus, ip, read-out: MES ED50
[4] = test system: 6 Hz (32 mA) psychomotor seizure; experiment: 6 Hz; type: in vivo, mice; conditions: Mus musculus, ip, read-out: 6 Hz ED50
[5] = Rotorod test for neurological impairment, mice ip; conditions: mouse, in vivo
[6] = test system: 6 Hz (32 mA) psychomotor seizure; conditions: mice, ip, time (h) in brackets; cited from earlier work
[7] = test system: maximal electroshock seizure; conditions: rat, po, cited from earlier work
[8] = test system: voltage-gated sodium channels (Nav1.1, Nav1.2, Nav1.3, Nav1.6) in rat embryonic cortical neurons; experiment: Whole-cell patch-clamp of Na+ currents in rat embryonic cortical neurons; type: cell-based; conditions: 10 μM, vs 0.1% DMSO control
[9] = target: T1, Na+ currents in CAD cells (mostly Nav1.7); experiment: Whole-cell patch-clamp of Na+ currents in CAD cells; type: cell-based; conditions: any concentration tested, control V1/2 −19.5 ± 2.8 mV
CYP1A2 = target: T2, CYP1A2 (Homo sapiens, UniProt P05177); experiment: CYP450 inhibition panel: CYP1A2; type: in vitro ADME; conditions: 10 μM; data not shown
T2 sequence (P05177 1-516): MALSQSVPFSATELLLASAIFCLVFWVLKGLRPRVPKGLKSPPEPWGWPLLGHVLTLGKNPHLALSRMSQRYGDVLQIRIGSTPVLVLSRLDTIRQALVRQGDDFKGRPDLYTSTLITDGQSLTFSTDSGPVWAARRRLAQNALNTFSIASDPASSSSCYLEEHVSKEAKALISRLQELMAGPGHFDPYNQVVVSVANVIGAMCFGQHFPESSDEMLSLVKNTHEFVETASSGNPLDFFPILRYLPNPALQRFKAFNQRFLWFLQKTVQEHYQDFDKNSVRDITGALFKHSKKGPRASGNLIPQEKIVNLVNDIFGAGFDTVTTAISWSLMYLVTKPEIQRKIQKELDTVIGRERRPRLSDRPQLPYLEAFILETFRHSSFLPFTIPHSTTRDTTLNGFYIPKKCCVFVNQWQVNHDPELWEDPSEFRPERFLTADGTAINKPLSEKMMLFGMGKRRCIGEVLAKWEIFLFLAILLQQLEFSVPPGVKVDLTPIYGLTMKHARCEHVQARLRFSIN

CYP2B6 = target: T3, CYP2B6 (Homo sapiens, UniProt P20813); experiment: CYP450 inhibition panel: CYP2B6; type: in vitro ADME; conditions: 10 μM; data not shown
T3 sequence (P20813 1-491): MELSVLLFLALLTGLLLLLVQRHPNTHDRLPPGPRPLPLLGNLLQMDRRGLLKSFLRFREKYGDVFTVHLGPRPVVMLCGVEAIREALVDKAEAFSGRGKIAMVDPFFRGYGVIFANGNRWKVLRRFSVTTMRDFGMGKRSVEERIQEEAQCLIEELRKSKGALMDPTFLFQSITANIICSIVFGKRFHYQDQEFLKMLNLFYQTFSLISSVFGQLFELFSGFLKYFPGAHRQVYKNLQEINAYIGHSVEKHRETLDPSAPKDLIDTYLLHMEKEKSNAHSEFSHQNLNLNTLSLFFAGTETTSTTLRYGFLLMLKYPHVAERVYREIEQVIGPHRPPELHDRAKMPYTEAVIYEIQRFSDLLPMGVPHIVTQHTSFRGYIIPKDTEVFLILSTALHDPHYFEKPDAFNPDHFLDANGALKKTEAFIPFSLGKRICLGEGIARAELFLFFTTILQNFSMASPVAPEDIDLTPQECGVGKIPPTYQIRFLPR

CYP2C8 = target: T4, CYP2C8 (Homo sapiens, UniProt P10632); experiment: CYP450 inhibition panel: CYP2C8; type: in vitro ADME; conditions: 10 μM; data not shown
T4 sequence (P10632 1-490): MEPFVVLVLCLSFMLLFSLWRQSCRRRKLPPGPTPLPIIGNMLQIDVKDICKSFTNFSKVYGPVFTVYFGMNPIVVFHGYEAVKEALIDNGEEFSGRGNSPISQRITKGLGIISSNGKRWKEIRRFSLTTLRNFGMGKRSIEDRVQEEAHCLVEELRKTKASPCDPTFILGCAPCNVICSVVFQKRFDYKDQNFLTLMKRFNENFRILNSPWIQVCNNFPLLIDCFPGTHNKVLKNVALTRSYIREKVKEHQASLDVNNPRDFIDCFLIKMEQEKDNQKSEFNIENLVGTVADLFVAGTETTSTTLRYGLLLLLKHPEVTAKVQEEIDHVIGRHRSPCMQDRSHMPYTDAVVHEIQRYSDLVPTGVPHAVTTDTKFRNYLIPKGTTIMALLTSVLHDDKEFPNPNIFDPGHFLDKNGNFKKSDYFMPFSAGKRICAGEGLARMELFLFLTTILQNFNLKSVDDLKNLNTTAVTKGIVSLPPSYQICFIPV

CYP2C9 = CYP2C9 (Homo sapiens, UniProt P11712); experiment: CYP450 inhibition panel: CYP2C9; type: in vitro ADME; conditions: 10 μM; data not shown
CYP2C9, sequence (P11712 whole entry): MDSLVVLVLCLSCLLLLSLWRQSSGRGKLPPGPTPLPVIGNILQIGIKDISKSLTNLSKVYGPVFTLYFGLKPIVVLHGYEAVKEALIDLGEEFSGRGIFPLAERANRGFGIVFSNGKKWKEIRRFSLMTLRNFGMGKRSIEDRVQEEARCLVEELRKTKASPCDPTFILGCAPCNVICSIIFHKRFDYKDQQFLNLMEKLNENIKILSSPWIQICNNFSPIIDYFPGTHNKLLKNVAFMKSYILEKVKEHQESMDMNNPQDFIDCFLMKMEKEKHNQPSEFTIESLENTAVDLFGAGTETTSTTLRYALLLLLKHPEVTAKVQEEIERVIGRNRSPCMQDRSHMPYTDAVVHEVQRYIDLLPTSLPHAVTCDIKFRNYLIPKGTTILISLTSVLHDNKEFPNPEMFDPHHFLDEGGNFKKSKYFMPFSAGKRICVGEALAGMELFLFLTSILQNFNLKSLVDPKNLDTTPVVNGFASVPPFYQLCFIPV

CYP2C19 = CYP2C19 (Homo sapiens, UniProt P33261); experiment: CYP450 inhibition panel: CYP2C19; type: in vitro ADME; conditions: 10 μM; data not shown
CYP2C19, sequence (P33261 whole entry): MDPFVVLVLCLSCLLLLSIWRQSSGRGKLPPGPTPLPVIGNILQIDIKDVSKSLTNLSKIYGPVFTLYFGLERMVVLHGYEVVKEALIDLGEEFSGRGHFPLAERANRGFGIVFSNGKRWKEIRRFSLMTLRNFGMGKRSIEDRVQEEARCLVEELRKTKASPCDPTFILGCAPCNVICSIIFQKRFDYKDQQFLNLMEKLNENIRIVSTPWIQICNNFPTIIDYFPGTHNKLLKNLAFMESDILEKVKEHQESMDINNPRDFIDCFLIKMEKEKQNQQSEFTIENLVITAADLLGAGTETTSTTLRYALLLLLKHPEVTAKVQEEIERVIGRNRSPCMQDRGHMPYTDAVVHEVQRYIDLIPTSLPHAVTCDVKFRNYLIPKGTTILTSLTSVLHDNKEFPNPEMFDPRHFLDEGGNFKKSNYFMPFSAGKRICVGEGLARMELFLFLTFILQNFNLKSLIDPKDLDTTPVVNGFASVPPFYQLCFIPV

CYP2D6 = CYP2D6 (Homo sapiens, UniProt P10635); experiment: CYP450 inhibition panel: CYP2D6; type: in vitro ADME; conditions: 10 μM; data not shown
CYP2D6, sequence (P10635 whole entry): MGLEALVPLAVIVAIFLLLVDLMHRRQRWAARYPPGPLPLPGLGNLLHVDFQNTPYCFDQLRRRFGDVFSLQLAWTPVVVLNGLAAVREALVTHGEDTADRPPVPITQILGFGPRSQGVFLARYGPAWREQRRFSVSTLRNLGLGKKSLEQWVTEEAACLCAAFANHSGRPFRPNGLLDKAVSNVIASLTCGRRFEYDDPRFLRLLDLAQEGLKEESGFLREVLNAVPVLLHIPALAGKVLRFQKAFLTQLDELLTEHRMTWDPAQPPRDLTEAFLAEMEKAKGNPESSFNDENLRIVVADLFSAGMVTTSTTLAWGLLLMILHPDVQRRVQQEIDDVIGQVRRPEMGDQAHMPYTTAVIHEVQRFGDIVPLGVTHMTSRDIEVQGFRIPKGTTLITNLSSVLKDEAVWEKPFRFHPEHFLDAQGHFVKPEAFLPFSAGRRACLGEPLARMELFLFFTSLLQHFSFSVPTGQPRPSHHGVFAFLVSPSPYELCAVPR

CYP3A4/5 = experiment: CYP450 inhibition panel: CYP3A4/5; type: in vitro ADME, human; conditions: 10 μM; data not shown
hERG K+ channel = hERG K+ channel (Homo sapiens, UniProt Q12809); experiment: hERG K+ channel activity; type: cell-based; conditions: 30 μM; Patch Express; data not shown
hERG K+ channel, sequence (Q12809 whole entry): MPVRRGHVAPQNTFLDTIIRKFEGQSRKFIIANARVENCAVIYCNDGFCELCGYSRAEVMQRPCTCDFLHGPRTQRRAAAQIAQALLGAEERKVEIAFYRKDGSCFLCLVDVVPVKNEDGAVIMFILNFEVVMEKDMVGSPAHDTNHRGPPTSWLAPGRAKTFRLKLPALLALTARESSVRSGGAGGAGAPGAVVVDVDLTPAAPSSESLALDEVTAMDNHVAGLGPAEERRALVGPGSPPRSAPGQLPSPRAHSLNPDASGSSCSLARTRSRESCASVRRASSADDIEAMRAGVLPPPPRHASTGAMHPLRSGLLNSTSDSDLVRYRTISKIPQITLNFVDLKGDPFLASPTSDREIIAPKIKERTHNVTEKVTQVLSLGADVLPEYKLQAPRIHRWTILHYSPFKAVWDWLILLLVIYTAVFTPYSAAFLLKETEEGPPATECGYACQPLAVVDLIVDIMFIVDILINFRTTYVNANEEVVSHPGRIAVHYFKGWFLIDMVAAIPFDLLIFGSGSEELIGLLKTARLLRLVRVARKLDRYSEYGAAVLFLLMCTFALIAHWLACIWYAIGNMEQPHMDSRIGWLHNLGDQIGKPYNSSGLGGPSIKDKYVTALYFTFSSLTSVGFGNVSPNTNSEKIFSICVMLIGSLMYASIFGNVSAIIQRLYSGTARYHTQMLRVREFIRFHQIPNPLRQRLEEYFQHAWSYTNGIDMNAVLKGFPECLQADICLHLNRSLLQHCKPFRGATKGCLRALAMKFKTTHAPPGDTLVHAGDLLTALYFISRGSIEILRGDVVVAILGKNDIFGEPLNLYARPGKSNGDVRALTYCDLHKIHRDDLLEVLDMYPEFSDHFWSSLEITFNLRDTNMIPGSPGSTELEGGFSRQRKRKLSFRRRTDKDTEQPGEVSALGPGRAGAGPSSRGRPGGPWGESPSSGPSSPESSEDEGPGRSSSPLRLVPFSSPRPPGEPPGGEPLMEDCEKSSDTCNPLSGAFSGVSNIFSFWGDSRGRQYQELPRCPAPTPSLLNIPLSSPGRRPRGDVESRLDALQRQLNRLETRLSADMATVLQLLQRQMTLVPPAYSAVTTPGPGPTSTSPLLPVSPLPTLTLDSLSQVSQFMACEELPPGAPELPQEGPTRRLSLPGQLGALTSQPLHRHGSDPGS

[10] = test system: maximal electroshock seizure; conditions: mice, ip; 95% CI in parentheses; cited from earlier work
[11] = test system: maximal electroshock seizure; conditions: rat, ip; 95% CI in parentheses; cited from earlier work

T1 sequence (Q62205 whole entry): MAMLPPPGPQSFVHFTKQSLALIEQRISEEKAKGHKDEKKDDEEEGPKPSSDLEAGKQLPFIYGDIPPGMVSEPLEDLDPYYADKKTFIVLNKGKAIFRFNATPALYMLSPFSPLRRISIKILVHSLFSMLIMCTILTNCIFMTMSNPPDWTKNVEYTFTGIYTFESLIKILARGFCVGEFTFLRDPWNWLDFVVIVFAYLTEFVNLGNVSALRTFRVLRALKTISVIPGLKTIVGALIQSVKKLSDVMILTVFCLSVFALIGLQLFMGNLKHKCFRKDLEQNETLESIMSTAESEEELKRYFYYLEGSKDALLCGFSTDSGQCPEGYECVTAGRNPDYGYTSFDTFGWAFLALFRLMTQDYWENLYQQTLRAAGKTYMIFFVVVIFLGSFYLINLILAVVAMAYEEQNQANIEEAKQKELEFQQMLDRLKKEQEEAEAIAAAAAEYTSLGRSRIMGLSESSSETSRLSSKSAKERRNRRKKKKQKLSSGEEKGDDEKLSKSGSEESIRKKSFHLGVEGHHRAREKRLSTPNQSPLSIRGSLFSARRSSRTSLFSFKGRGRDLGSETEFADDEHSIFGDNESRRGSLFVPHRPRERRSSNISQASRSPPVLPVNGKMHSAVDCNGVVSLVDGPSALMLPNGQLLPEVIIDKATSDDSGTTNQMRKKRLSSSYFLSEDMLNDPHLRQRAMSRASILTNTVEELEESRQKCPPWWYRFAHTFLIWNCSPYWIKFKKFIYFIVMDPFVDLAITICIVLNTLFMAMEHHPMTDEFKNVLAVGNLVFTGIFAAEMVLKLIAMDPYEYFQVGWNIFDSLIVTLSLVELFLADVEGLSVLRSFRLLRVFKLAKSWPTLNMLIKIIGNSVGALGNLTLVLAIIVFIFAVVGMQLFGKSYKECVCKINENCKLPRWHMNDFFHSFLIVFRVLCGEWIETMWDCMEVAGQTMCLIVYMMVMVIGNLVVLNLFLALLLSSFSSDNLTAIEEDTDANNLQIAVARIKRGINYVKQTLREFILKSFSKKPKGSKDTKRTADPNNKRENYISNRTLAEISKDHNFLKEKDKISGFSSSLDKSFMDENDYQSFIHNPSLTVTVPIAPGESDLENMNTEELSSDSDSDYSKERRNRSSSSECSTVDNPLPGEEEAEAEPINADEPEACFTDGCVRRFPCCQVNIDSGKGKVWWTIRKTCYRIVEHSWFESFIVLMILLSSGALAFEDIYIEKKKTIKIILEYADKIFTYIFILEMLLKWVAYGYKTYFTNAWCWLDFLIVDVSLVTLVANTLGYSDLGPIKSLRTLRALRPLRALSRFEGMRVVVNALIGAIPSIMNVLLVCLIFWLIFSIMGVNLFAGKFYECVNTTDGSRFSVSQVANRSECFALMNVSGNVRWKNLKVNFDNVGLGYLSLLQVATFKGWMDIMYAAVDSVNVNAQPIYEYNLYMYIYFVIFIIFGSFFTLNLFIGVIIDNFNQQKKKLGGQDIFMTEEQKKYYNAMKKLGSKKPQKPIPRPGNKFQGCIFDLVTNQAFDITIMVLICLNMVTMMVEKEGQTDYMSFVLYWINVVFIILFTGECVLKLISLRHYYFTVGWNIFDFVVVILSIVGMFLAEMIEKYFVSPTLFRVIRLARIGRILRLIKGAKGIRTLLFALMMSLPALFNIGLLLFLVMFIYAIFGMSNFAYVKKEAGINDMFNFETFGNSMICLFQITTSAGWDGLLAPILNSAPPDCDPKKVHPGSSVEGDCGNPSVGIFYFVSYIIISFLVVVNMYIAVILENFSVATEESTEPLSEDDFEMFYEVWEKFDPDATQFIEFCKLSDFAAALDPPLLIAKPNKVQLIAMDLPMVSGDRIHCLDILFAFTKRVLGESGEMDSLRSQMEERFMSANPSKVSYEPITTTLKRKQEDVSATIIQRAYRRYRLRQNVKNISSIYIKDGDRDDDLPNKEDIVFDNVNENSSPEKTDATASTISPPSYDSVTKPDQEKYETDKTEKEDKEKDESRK

Compound: COC[C@@H](NC(C)=O)C(=O)NCc1ccccc1 [(R)-1, (R)-N-benzyl 2-N-acetamido-3-methoxypropionamide]
- scMet seizure model: activity [1]: no activity
- IC50 [2]: 85 µM
- Tox TD50 (behavioral toxicity) (behavioral toxicity): >500 [0.5] mg/kg

Compound: COC[C@@H](NC(C)=O)C(=O)NCc1ccc(Oc2ccccc2)cc1 [(R)-3, (R)-N-4′-Phenoxybenzyl 2-N-Acetamido-3-methoxypropionamide]
- ED50 [3]: 10 to 30 mg/kg
- ED50 [4]: 10 to 30 mg/kg
- TD50 at 0.5 h [5]: 30 to 100 mg/kg

Compound: COC[C@@H](NC(C)=O)C(=O)NCc1ccc(Oc2cccc(F)c2)cc1 [(R)-4]
- 6 Hz ED50 [6]: ~10 [0.25–0.5] mg/kg
- MES ED50 [7]: <10 [0.25–4.0] mg/kg
- Tox TD50 (behavioral toxicity) (behavioral toxicity): >10 [0.25–4.0] mg/kg

Compound: COC[C@@H](NC(C)=O)C(=O)NCc1ccc(Oc2cccc(Cl)c2)cc1 [(R)-5, (R)-N-4′-((3″-Chloro)phenoxy)benzyl 2-N-Acetamido-3-methoxypropionamide]
- Effect on transition of VGSCs to the slow-inactivated state [8]: facilitated the transition of a majority of sodium channels into the slow-inactivated state

Compound: COC[C@@H](NC(C)=O)C(=O)NCc1ccc(Oc2cccc(C(F)(F)F)c2)cc1 [(R)-7, (R)-N-4′-((3″-Trifluoromethyl)phenoxy)benzyl2-N-Acetamido-3-methoxypropionamide]
- ED50 [4]: 10 to 100 mg/kg

Compound: COC[C@@H](NC(C)=O)C(=O)NCc1ccc(Oc2cccc(OC)c2)cc1 [(R)-8, (R)-N-4′-((3″-Methoxy)phenoxy)benzyl 2-N-Acetamido-3-methoxypropionamide]
- ED50 [4]: 30 to 100 mg/kg

Compound: COC[C@@H](NC(C)=O)C(=O)NCc1ccc(Oc2cccc(OC(F)(F)F)c2)cc1 [(R)-9, (R)-N-4′-((3″-Trifluoromethoxy)phenoxy)benzyl2-N-Acetamido-3-methoxypropionamide]
- Steady-state activation properties vs control [9]: no different
- Direct inhibition of CYP1A2 (CYP1A2): little or no direct inhibition
- Direct inhibition of CYP2B6 (CYP2B6): little or no direct inhibition
- Direct inhibition of CYP2C8 (CYP2C8): little or no direct inhibition
- Direct inhibition of CYP2C9 (CYP2C9): little or no direct inhibition
- Direct inhibition of CYP2C19 (CYP2C19): little or no direct inhibition
- Direct inhibition of CYP2D6 (CYP2D6): little or no direct inhibition
- Direct inhibition of CYP3A4/5 (CYP3A4/5): little or no direct inhibition
- Effect on hERG K+ channel activity (hERG K+ channel): did not affect

Compound: C[C@H](NCc1ccc(OCc2cccc(F)c2)cc1)C(N)=O [(S)-2, (S)-2-(4′-((3″-fluoro)benzyloxy)benzyl)aminopropionamide]
- MES ED50 [10]: 4.1 (3.0–5.5) mg/kg
- MES ED50 ([7]; 95% CI in parentheses): 12 (10–14) mg/kg
- IC50 [2]: 13 µM

Compound: O=C1NC(=O)C(c2ccccc2)(c2ccccc2)N1 [phenytoin]
- MES ED50 ([7]; 95% CI in parentheses): 28 (21–35) mg/kg
- MES ED50 [11]: 2.4 (1.4–3.7) mg/kg
